Measurements from patent US11883526B2 (priority 2019, dated 2024).
Where two headings read alike, the source gives them in different places.

Test system: subjects with MDD at imminent risk for suicide
Details: 84 mg
[1] = TEAE leading to study discontinuation, double-blind phase, N = 35
[2] = TEAE, double-blind phase, N = 35

## CN[C@]1(c2ccccc2Cl)CCCCC1=O [esketamine, (S)-2-(2-chlorophenyl)-2-(methylamino)cyclohexanone]
  subjects who discontinued the double-blind phase due to adverse events: 5 subjects
double-blind phase
  TEAE incidence: dissociation: 31.4%
  TEAE incidence: dizziness: 34.3%
  TEAE incidence: dysgeusia: 31.4%
  TEAE incidence: headache: 31.4%
  TEAE incidence: nausea: 37.1%
  TEAE incidence: vomiting: 20.0%
  subjects with a serious treatment-emergent adverse event: Four
  subjects with at least one TEAE: 94.3%
Follow up phase
  subjects with a serious adverse event: 1 subjects
  subjects with at least one adverse event: 48.1%
All randomized analysis set
  Withdrawn from double-blind phase: Adverse event, percent of subjects: (13.9%)
All randomized analysis set, N = 36
  Withdrawn from double-blind phase: Adverse event, number of subjects: 5
[1]
  Aggression: % of subjects: 2.9%
  Aggression: no. of subjects: 1
  Agitation: % of subjects: 2.9%
  Agitation: no. of subjects: 1
  Cardiac disorders: % of subjects: 2.9%
  Cardiac disorders: no. of subjects: 1
  Dissociative disorder: no. of subjects: 0
  Dizziness: % of subjects: 2.9%
  Dizziness: no. of subjects: 1
  Dysgeusia: % of subjects: 2.9%
  Dysgeusia: no. of subjects: 1
  Dyspnea: % of subjects: 2.9%
  Dyspnea: no. of subjects: 1
  Gastrointestinal disorders: % of subjects: 2.9%
  Gastrointestinal disorders: no. of subjects: 1
  Nausea: % of subjects: 2.9%
  Nausea: no. of subjects: 1
  Nervous system disorders: % of subjects: 5.7%
  Nervous system disorders: no. of subjects: 2
  Panic attack: no. of subjects: 0
  Psychiatric disorders: % of subjects: 5.7%
  Psychiatric disorders: no. of subjects: 2
  Respiratory, thoracic and mediastinal disorders: % of subjects: 2.9%
  Respiratory, thoracic and mediastinal disorders: no. of subjects: 1
  Total no. subjects with TEAE leading to study discontinuation: % of subjects: 14.3%
  Total no. subjects with TEAE leading to study discontinuation: no. of subjects: 5
  Ventricular extrasystoles: % of subjects: 2.9%
  Ventricular extrasystoles: no. of subjects: 1
[2]
  Abdominal pain: no. of subjects: 0
  Acne: % of subjects: (5.7%)
  Acne: no. of subjects: 2
  Agitation: % of subjects: (8.6%)
  Agitation: no. of subjects: 3
  Anxiety: % of subjects: (17.1%)
  Anxiety: no. of subjects: 6
  Blepharospasm: no. of subjects: 0
  Blood pressure increased: % of subjects: (5.7%)
  Blood pressure increased: no. of subjects: 2
  Constipation: no. of subjects: 0
  Diarrhea: % of subjects: (8.6%)
  Diarrhea: no. of subjects: 3
  Diplopia: % of subjects: (5.7%)
  Diplopia: no. of subjects: 2
  Dissociation: % of subjects: (31.4%)
  Dissociation: no. of subjects: 11
  Dizziness postural: % of subjects: (5.7%)
  Dizziness postural: no. of subjects: 2
  Dizziness: % of subjects: (34.3%)
  Dizziness: no. of subjects: 12
  Dry mouth: % of subjects: (8.6%)
  Dry mouth: no. of subjects: 3
  Dysgeusia: % of subjects: (31.4%)
  Dysgeusia: no. of subjects: 11
  Ear and labyrinth disorders: % of subjects: (25.7%)
  Ear and labyrinth disorders: no. of subjects: 9
  Epistaxis: no. of subjects: 0
  Euphoric mood: % of subjects: (11.4%)
  Euphoric mood: no. of subjects: 4
  Eye disorders: % of subjects: (20.0%)
  Eye disorders: no. of subjects: 7
  Fatigue: % of subjects: (5.7%)
  Fatigue: no. of subjects: 2
  Feeling abnormal: % of subjects: (8.6%)
  Feeling abnormal: no. of subjects: 3
  Feeling cold: % of subjects: (5.7%)
  Feeling cold: no. of subjects: 2
  Flatulence: % of subjects: (2.9%)
  Flatulence: no. of subjects: 1
  Gastrointestinal disorders: % of subjects: (54.3%)
  Gastrointestinal disorders: no. of subjects: 19
  General disorders and administration site conditions: % of subjects: (28.6%)
  General disorders and administration site conditions: no. of subjects: 10
  Headache: % of subjects: (31.4%)
  Headache: no. of subjects: 11
  Hyperacusis: % of subjects: (5.7%)
  Hyperacusis: no. of subjects: 2
  Hyperhidrosis: % of subjects: (5.7%)
  Hyperhidrosis: no. of subjects: 2
  Hypoesthesia oral: % of subjects: (5.7%)
  Hypoesthesia oral: no. of subjects: 2
  Hypoesthesia: % of subjects: (8.6%)
  Hypoesthesia: no. of subjects: 3
  Infections and infestations: % of subjects: (2.9%)
  Infections and infestations: no. of subjects: 1
  Insomnia: % of subjects: (8.6%)
  Insomnia: no. of subjects: 3
  Intranasal paranesthesia: no. of subjects: 0
  Investigations: % of subjects: (14.3%)
  Investigations: no. of subjects: 5
  Nasal congestion: % of subjects: (2.9%)
  Nasal congestion: no. of subjects: 1
  Nasal discomfort: % of subjects: (8.6%)
  Nasal discomfort: no. of subjects: 3
  Nausea: % of subjects: (37.1%)
  Nausea: no. of subjects: 13
  Nervous system disorders: % of subjects: (71.4%)
  Nervous system disorders: no. of subjects: 25
  Oropharyngeal pain: % of subjects: (5.7%)
  Oropharyngeal pain: no. of subjects: 2
  Panic attack: no. of subjects: 0
  Paresthesia oral: % of subjects: (5.7%)
  Paresthesia oral: no. of subjects: 2
  Paresthesia: % of subjects: (17.1%)
  Paresthesia: no. of subjects: 6
  Pharyngeal hypoesthesia: % of subjects: (5.7%)
  Pharyngeal hypoesthesia: no. of subjects: 2
  Pollakiuria: no. of subjects: 0
  Psychiatric disorders: % of subjects: (57.1%)
  Psychiatric disorders: no. of subjects: 20
  Rash: % of subjects: (2.9%)
  Rash: no. of subjects: 1
  Renal and urinary disorders: % of subjects: (2.9%)
  Renal and urinary disorders: no. of subjects: 1
  Respiratory, thoracic and mediastinal disorders: % of subjects: (25.7%)
  Respiratory, thoracic and mediastinal disorders: no. of subjects: 9
  Rhinalgia: no. of subjects: 0
  Rhinorrhoea: no. of subjects: 0
  Sedation: % of subjects: (17.1%)
  Sedation: no. of subjects: 6
  Skin and subcutaneous tissue disorders: % of subjects: (14.3%)
  Skin and subcutaneous tissue disorders: no. of subjects: 5
  Somnolence: % of subjects: (11.4%)
  Somnolence: no. of subjects: 4
  Suicidal ideation: % of subjects: (5.7%)
  Suicidal ideation: no. of subjects: 2
  Throat irritation: % of subjects: (8.6%)
  Throat irritation: no. of subjects: 3
  Tinnitus: % of subjects: (5.7%)
  Tinnitus: no. of subjects: 2
  Toothache: no. of subjects: 0
  Total no. subjects with TEAE: % of subjects: (94.3%)
  Total no. subjects with TEAE: no. of subjects: 33
  Upper respiratory tract infection: no. of subjects: 0
  Vertigo: % of subjects: (11.4%)
